Where two headings read alike, the source gives them in different places.
How the values were obtained:
FGFR1 = FGFR1 (Homo sapiens (Human), UniProt P11362); test: FGFR Enzymatic Assay (FRET peptide phosphorylation), FGFR1; settings: read-out: FGFR1 IC50
Description: (§1) The enzymes were purchased from Millipore or Invitrogen.
(§2) GraphPad prism3 was used to analyze the data. The IC50 values were derived by fitting the data to the equation for a sigmoidal dose-response with a variable slope. Y=Bottom+(Top-Bottom)/(1+10^((LogIC50−X)*HillSlope)) where X is the logarithm of concentration and Y is the response.

FGFR2 = FGFR2 (Homo sapiens (Human), UniProt P21802); test: FGFR Enzymatic Assay (FRET peptide phosphorylation), FGFR2; settings: read-out: FGFR2 IC50
Description: as §1, §2

FGFR3 = FGFR3 (Homo sapiens (Human), UniProt P22607); test: FGFR Enzymatic Assay (FRET peptide phosphorylation), FGFR3; settings: read-out: FGFR3 IC50
FGFR3, sequence (P22607 23-806): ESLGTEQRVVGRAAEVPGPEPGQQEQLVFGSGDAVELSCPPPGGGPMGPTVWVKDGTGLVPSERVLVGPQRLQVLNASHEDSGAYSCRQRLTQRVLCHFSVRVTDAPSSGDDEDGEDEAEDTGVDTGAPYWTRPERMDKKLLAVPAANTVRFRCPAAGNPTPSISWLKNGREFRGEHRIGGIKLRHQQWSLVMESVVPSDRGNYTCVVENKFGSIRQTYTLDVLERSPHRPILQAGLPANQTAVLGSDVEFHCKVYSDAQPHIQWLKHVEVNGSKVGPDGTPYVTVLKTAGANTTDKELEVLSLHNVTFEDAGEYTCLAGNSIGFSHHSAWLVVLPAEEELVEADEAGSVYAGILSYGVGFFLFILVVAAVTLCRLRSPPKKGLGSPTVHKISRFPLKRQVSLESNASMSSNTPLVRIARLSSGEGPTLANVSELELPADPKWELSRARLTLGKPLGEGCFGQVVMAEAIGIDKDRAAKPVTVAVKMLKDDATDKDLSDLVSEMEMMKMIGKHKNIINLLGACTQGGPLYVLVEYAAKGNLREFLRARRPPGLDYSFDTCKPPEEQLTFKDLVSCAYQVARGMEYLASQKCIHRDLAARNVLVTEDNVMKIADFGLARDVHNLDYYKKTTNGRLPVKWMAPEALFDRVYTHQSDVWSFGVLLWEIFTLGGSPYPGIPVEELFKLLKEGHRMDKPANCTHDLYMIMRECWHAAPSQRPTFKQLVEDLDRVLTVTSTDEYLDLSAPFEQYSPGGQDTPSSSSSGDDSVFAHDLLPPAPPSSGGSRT
Description: as §1, §2

FGFR4 = FGFR4 (Homo sapiens (Human), UniProt P22455); test: FGFR Enzymatic Assay (FRET peptide phosphorylation), FGFR4; settings: for FGFR1/FGFR4 IC50 ratio / FGFR2/FGFR4 IC50 ratio / FGFR3/FGFR4 IC50 ratio: IC50 ratio showing FGFR4 selectivity
FGFR4, sequence (P22455 22-802): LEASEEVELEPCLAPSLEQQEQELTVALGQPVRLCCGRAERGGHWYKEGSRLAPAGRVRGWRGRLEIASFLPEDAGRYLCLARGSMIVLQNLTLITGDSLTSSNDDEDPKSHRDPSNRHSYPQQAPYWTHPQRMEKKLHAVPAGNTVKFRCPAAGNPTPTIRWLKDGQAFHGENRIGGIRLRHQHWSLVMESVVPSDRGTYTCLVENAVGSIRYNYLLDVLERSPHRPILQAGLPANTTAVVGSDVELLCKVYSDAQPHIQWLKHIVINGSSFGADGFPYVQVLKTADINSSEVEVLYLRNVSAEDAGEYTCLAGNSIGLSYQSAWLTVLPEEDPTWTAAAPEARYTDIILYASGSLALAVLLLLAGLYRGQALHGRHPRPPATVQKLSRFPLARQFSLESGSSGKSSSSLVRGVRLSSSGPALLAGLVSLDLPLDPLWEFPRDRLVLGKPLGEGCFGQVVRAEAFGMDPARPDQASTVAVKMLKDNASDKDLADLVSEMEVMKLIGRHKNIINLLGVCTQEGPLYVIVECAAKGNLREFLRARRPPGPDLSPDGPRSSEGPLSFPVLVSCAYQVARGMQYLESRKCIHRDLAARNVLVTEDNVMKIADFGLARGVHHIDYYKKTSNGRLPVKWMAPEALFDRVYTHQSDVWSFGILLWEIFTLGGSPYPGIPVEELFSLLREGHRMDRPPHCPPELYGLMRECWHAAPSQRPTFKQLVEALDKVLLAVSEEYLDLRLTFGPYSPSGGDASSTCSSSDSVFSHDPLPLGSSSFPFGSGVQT
Description: as §1, §2

[1] = read-out: FGFR4 IC50, pre-incubated for 4 hours
[2] = pre-incubated for 5 to 10 minutes
[3] = read-out: FGFR4 IC50, pre-incubated for 5 to 10 minutes

FGFR1, sequence (P11362 22-822): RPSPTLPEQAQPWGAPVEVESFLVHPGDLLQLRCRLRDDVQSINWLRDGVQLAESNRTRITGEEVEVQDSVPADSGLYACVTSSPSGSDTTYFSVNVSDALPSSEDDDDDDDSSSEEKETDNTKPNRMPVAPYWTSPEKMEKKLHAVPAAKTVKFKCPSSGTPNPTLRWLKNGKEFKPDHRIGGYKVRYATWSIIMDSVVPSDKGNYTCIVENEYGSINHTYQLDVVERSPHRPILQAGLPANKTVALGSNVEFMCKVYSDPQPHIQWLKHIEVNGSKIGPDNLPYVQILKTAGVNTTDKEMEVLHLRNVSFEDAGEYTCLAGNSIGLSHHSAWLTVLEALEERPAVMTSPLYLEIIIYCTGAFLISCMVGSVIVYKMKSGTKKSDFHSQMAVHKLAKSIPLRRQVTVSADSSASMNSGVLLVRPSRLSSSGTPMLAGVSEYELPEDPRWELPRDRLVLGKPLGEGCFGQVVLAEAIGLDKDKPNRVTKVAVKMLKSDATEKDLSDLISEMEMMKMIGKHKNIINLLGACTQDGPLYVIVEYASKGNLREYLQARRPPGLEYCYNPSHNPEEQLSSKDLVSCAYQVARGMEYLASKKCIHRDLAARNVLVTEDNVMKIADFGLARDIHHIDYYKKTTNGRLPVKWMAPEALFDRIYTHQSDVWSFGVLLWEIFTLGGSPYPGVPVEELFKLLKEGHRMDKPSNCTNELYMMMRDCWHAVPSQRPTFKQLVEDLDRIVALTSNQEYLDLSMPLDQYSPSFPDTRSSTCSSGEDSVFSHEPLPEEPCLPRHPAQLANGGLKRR
FGFR2, sequence (P21802 22-821): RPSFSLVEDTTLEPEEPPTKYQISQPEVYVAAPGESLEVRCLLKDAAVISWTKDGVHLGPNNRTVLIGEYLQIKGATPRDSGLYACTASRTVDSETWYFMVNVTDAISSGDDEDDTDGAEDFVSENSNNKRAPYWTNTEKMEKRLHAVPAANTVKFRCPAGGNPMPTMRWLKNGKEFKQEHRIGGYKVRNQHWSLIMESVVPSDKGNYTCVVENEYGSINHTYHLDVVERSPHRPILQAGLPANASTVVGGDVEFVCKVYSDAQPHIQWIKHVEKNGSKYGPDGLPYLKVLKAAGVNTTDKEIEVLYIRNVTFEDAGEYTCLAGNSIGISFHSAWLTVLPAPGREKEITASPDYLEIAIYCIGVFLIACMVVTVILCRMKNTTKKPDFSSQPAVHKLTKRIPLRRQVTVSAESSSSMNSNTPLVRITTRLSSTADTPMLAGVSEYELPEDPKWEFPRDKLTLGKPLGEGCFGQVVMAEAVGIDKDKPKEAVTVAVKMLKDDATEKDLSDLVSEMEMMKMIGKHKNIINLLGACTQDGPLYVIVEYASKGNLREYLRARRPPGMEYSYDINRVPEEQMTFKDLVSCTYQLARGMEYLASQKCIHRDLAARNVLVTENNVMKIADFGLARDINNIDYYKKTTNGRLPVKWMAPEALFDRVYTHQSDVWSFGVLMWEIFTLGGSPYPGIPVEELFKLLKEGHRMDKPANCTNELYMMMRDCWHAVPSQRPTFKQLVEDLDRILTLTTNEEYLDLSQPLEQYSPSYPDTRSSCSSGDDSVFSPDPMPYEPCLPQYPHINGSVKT

| Compound | IC50 (FGFR1; pre-incubated for 4 hours) | IC50 (FGFR2; pre-incubated for 4 hours) | IC50 (FGFR3; pre-incubated for 4 hours) | IC50 (FGFR4) | FGFR1/FGFR4 IC50 ratio (FGFR4; pre-incubated for 4 hours) | FGFR2/FGFR4 IC50 ratio (FGFR4; pre-incubated for 4 hours) | FGFR3/FGFR4 IC50 ratio (FGFR4; pre-incubated for 4 hours) | IC50 (FGFR4; [1]) | IC50 (FGFR1; [2]) | IC50 (FGFR2; [2]) | IC50 (FGFR3; [2]) | FGFR1/FGFR4 IC50 ratio (FGFR4; [2]) | FGFR2/FGFR4 IC50 ratio (FGFR4; [2]) | FGFR3/FGFR4 IC50 ratio (FGFR4; [2]) | IC50 (FGFR4; [3]) |
| --- | --- | --- | --- | --- | --- | --- | --- | --- | --- | --- | --- | --- | --- | --- | --- |
| C=CC(=O)Nc1cnn(Cc2cnn(C)c2)c1-c1cc2c(cn1)CN(c1c(F)c(OC)cc(OC)c1F)C(=O)C21CC1 [Example 27, N-(5-(2′-(2,6-difluoro-3,5-dimethoxyphenyl)-3′-oxo-2′,3′-dihydro-1′H-spiro[cyclopropane-1,4′-[2,7]naphthyridine]-6′-yl)-1-((1-methyl-1H-pyrazol-4-yl)methyl)-1H-pyrazol-4-yl)acrylamide] | > 200 nM | > 200 nM | > 200 nM | – | >100 | >100 | >100 | < 10 nM | – | – | – | – | – | – | – |
| C=CC(=O)Nc1cn(CCOC(F)(F)F)nc1-c1cc2c(cn1)CN(c1c(F)c(OC)cc(OC)c1F)C(=O)C21CC1 [Example 33, N-(3-(2′-(2,6-difluoro-3,5-dimethoxyphenyl)-3′-oxo-2′,3′-dihydro-1′H-spiro[cyclopropane-1,4′-[2,7]naphthyridine]-6′-yl)-1-(2-(trifluoromethoxy)ethyl)-1H-pyrazol-4-yl)acrylamide] | > 200 nM | > 200 nM | > 200 nM | – | >100 | >100 | >100 | < 10 nM | – | – | – | – | – | – | – |
| C=CC(=O)Nc1cnn(Cc2ccnn2C)c1-c1cc2c(cn1)CN(c1c(F)c(OC)cc(OC)c1F)C(=O)C21CC1 [Example 26, N-(5-(2′-(2,6-difluoro-3,5-dimethoxyphenyl)-3′-oxo-2′,3′-dihydro-1′H-spiro[cyclopropane-1,4′-[2,7]naphthyridine]-6′-yl)-1-((1-methyl-1H-pyrazol-5-yl)methyl)-1H-pyrazol-4-yl)acrylamide] | > 200 nM | > 200 nM | > 200 nM | 10 to 30 nM | >100 | >50 | >100 | – | – | – | – | – | – | – | – |
| C=CC(=O)Nc1cn(CCN2CCOCC2)nc1-c1cc2c(cn1)CN(c1c(F)c(OC)cc(OC)c1F)C(=O)C21CC1 [Example 34, N-(3-(2′-(2,6-difluoro-3,5-dimethoxyphenyl)-3′-oxo-2′,3′-dihydro-1′H-spiro[cyclopropane-1,4′-[2,7]naphthyridine]-6′-yl)-1-(2-morpholinoethyl)-1H-pyrazol-4-yl)acrylamide] | > 200 nM | > 200 nM | > 200 nM | – | >100 | >100 | >100 | < 10 nM | – | – | – | – | – | – | – |
| C=CC(=O)Nc1ccc(C)c(-c2cc3c(cn2)CN(c2c(F)c(OC)cc(OC)c2F)C(=O)C32CC2)c1 [Example 2, N-(3-(2′-(2,6-difluoro-3,5-dimethoxyphenyl)-3′-oxo-2′,3′-dihydro-1′H-spiro[cyclopropane-1,4′-[2,7]naphthyridine]-6′-yl)-4-methylphenyl)acrylamide] | > 200 nM | > 200 nM | > 200 nM | – | >100 | >100 | >100 | < 10 nM | > 200 nM | > 200 nM | > 200 nM | >100 | >100 | >100 | < 10 nM |
| C=CC(=O)Nc1cc(CN2CCOCC2)cc(-c2cc3c(cn2)CN(c2c(F)c(OC)cc(OC)c2F)C(=O)C32CC2)c1 [Example 11, N-[3-[2′-(2,6-difluoro-3,5-dimethoxyphenyl)-3′-oxo-2′,3′-dihydro-1′H-spiro[cyclopropane-1,4′-[2,7]naphthyridin]-6′-yl]-5-(morpholin-4-ylmethyl)phenyl]acrylamide] | > 200 nM | > 200 nM | > 200 nM | – | >100 | >100 | >100 | < 10 nM | > 200 nM | > 200 nM | > 200 nM | >100 | >100 | >100 | < 10 nM |

Next, values leading:

| IC50 (FGFR1; pre-incubated for 4 hours) | IC50 (FGFR2; pre-incubated for 4 hours) | IC50 (FGFR3; pre-incubated for 4 hours) | IC50 (FGFR4) | FGFR1/FGFR4 IC50 ratio (FGFR4; pre-incubated for 4 hours) | FGFR2/FGFR4 IC50 ratio (FGFR4; pre-incubated for 4 hours) | FGFR3/FGFR4 IC50 ratio (FGFR4; pre-incubated for 4 hours) | IC50 (FGFR4; [1]) | IC50 (FGFR1; [2]) | IC50 (FGFR2; [2]) | IC50 (FGFR3; [2]) | FGFR1/FGFR4 IC50 ratio (FGFR4; [2]) | FGFR2/FGFR4 IC50 ratio (FGFR4; [2]) | FGFR3/FGFR4 IC50 ratio (FGFR4; [2]) | IC50 (FGFR4; [3]) | Compound |
| --- | --- | --- | --- | --- | --- | --- | --- | --- | --- | --- | --- | --- | --- | --- | --- |
| > 200 nM | > 200 nM | > 200 nM | 10 to 30 nM | >100 | >100 | >100 | – | – | – | – | – | – | – | – | C=CC(=O)Nc1cnn(CCN2CCOCC2)c1-c1cc2c(cn1)CN(c1c(F)c(OC)cc(OC)c1F)C(=O)C21CC1 [Example 19, N-(5-(2′-(2,6-difluoro-3,5-dimethoxyphenyl)-3′-oxo-2′,3′-dihydro-1′H-spiro[cyclopropane-1,4′-[2,7]naphthyridine]-6′-yl)-1-(2-morpholinoethyl)-1H-pyrazol-4-yl)acrylamide] |
| > 200 nM | > 200 nM | > 200 nM | – | >100 | >100 | >100 | < 10 nM | – | – | – | – | – | – | – | C=CC(=O)Nc1cnn(Cc2ncn(C)n2)c1-c1cc2c(cn1)CN(c1c(F)c(OC)cc(OC)c1F)C(=O)C21CC1 [Example 23, N-(5-(2′-(2,6-difluoro-3,5-dimethoxyphenyl)-3′-oxo-2′,3′-dihydro-1′H-spiro[cyclopropane-1,4′-[2,7]naphthyridine]-6′-yl)-1-((1-methyl-1H-1,2,4-triazol-3-yl)methyl)-1H-pyrazol-4-yl)acrylamide] |
| > 200 nM | > 200 nM | > 200 nM | – | >100 | >100 | >100 | < 10 nM | – | – | – | – | – | – | – | C=CC(=O)Nc1cnn(Cc2ccon2)c1-c1cc2c(cn1)CN(c1c(F)c(OC)cc(OC)c1F)C(=O)C21CC1 [Example 25, N-(5-(2′-(2,6-difluoro-3,5-dimethoxyphenyl)-3′-oxo-2′,3′-dihydro-1′H-spiro[cyclopropane-1,4′-[2,7]naphthyridine]-6′-yl)-1-(isoxazol-3-ylmethyl)-1H-pyrazol-4-yl)acrylamide] |
| > 200 nM | > 200 nM | > 200 nM | – | >100 | >100 | >100 | < 10 nM | – | – | – | – | – | – | – | C=CC(=O)Nc1cnn(CCOC)c1-c1cc2c(cn1)CN(c1c(F)c(OC)cc(OC)c1F)C(=O)C21CC1 [Example 15, N-(5-(2′-(2,6-difluoro-3,5-dimethoxyphenyl)-3′-oxo-2′,3′-dihydro-1′H-spiro[cyclopropane-1,4′-[2,7]naphthyridine]-6′-yl)-1-(2-methoxyethyl)-1H-pyrazol-4-yl)acrylamide] |
| > 200 nM | > 200 nM | > 200 nM | – | >100 | >100 | >100 | < 10 nM | – | – | – | – | – | – | – | C=CC(=O)Nc1cnn(C[C@H]2CCCO2)c1-c1cc2c(cn1)CN(c1c(F)c(OC)cc(OC)c1F)C(=O)C21CC1 [Example 30, (R)-N-(5-(2′-(2,6-difluoro-3,5-dimethoxyphenyl)-3′-oxo-2′,3′-dihydro-1′H-spiro[cyclopropane-1,4′-[2,7]naphthyridine]-6′-yl)-1-((tetrahydrofuran-2-yl)methyl)-1H-pyrazol-4-yl)acrylamide] |
